The text below walks through data of patent publication US9573954B2, “Pyrazolopyrimidine compounds” (University Health Network, priority 2012, dated 2017).

Read-outs that look alike come from different tables or passages of the source.

The target in the experiment is T1, human TTK (Homo sapiens, UniProt P33981).
T1 construct: Active TTK was purchased from Invitrogen as an amino terminal GST fusion of full length human TTK; purchased Invitrogen
T1 sequence (P33981 1-857): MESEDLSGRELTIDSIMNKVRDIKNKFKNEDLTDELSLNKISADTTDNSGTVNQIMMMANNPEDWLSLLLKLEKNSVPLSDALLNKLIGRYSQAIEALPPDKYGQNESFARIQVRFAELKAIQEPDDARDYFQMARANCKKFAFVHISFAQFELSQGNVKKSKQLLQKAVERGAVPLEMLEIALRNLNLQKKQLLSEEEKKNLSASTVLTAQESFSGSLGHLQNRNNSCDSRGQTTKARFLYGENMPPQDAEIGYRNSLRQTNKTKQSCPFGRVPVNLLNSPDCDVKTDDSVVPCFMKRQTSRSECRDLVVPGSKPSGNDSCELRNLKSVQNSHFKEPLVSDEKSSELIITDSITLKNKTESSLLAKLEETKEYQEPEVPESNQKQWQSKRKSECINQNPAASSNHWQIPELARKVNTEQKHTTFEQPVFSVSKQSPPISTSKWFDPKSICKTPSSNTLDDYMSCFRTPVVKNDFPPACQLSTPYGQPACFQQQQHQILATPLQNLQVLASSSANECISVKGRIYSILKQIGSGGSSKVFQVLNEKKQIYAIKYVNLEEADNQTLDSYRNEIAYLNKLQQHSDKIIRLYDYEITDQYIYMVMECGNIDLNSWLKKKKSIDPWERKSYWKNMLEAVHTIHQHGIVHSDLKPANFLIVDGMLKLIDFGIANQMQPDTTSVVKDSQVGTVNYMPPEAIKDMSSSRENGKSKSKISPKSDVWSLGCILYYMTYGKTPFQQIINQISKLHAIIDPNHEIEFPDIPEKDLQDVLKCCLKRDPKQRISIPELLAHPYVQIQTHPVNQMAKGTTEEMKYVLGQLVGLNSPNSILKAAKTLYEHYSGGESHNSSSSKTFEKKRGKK
The experiment in a line: TTK inhibition assay (indirect ELISA). The format is biochemical. On the procedure:
Active TTK was purchased from Invitrogen as an amino terminal GST fusion of full length human TTK.
TTK activity was measured using an indirect ELISA detection system.
Compounds were pre-incubated in the presence of enzyme for 5 minutes prior to addition of ATP and the activity remaining quantified using the above described activity assay. The % Inhibition of a compound was determined using the following formula; % Inhibition=100×(1−(experimental value−background value)/(high activity control−background value)). The IC50 value was determined using a non-linear 4 point logistic curve fit (XLfit4, IDBS) with the formula; (A+(B/(1+((x/C)^D)))), where A=background value, B=range, C=inflection point, D=curve fit parameter.
For orientation: In an ELISA, binding on a coated surface is turned into a signal by an enzyme label.

The mark [1] stands for this setting: 100 μM ATP, read-out: TTK IC50 Range.
The mark [2] stands for this setting: 16 μM ATP (Sigma cat# A7699), read-out: TTK IC50 Range (denoted with an asterisk).
[3] abbreviates: Table 2, 16 μM ATP (asterisk), read-out: TTK IC50 Range.
Where [4] appears, read: Table 1, 16 μM ATP (asterisk), read-out: TTK IC50 Range.

Take `Cc1cc(-c2cnn3c(NCC4CCOCC4)cc(N4CC[C@@H](CO)C4)nc23)ccc1C(=O)NC1CC1` [Example C167]: under setting [1], the IC50 (as a rule, the concentration that gives 50% inhibition) is below 100 nM.

Take `Cc1cc(-c2cnn3c(NCCN4CCOCC4)cc(NC4CCOCC4)nc23)ccc1C(=O)NC1CC1` [Example C53]: the IC50 under setting [1] is below 100 nM.

As to `Cc1cc(-c2cnn3c(NCCN4CCC(F)(F)CC4)cc(Oc4cnn(C)c4)nc23)ccc1C(=O)NC1CC1` [Example C185], the IC50 under setting [1] is below 100 nM.

For the compound `Cc1cc(-c2cnn3c(NCC(C)C)cc(-c4cccc5ncccc45)nc23)ccc1C(=O)NC1CC1` [Example C154], the IC50 under setting [1] is 100 to 500 nM.

With `COCCNc1nc(Oc2ccccc2)nc2c(-c3ccc(C(=O)NC4CC4)cc3)cnn12` [Example C6], the IC50 under setting [2] is below 100 nM.

As for `Cc1cc(-c2cnn3c(NCC(C)C)cc(Oc4ccncc4)nc23)ccc1C(=O)NC1CC1` [Example C149], the IC50 under setting [1] was in the range of 100 to 500 nM.

In the case of `Cc1cc(-c2cnn3c(NCC4CCOCC4)cc(OC4CCN(C5COC5)CC4)nc23)ccc1C(=O)NC1CC1` [Example C115], the IC50 under setting [1] was below 100 nM.

Take `Cc1cc(-c2cnn3c(NCC4CCOCC4)cc(NC(CO)CO)nc23)ccc1C(=O)NC1CC1` [Example C110]: under setting [1], the half-inhibitory concentration (IC50) was below 100 nM.

As to `Cc1cc(-c2cnn3c(NCCN4CCOCC4)cc(NCC4CC4)nc23)ccc1C(=O)NC1CC1` [Example C76], the IC50 under setting [1] was below 100 nM.

For `Cc1cc(-c2cnn3c(NC[C@@H]4CCCO4)cc(NC4CCCC4)nc23)ccc1C(=O)NC1CC1` [Example C64], under setting [1], the IC50 is below 100 nM.

As to `CC(C)NC(=O)c1ccc(-c2cnn3c(NCC4CCOCC4)nc(OC4CCCC4)nc23)cc1` [Example C4], under setting [2], the IC50 was 100 to 500 nM.

As to `COCCNc1cc(Oc2cccnc2)nc2c(-c3ccc(C(=O)NC4CC4)cc3)cnn12` [Example B4, N-cyclopropyl-4-(7-((2-methoxyethyl)amino)-5-(pyridin-3-yloxy)pyrazolo[1,5-a]pyrimidin-3-yl)benzamide], the IC50 under setting [3] is below 100 nM.

For the compound `Cc1cc(-c2cnn3c(NCCN4CCOCC4)cc(NCc4cccnc4)nc23)ccc1C(=O)NC1CC1` [Example C75], under setting [1], the IC50 is below 100 nM.

For the compound `Cc1cc(-c2cnn3c(NCC4CCOCC4)cc(OCCN4CCOCC4)nc23)ccc1C(=O)NC1CC1` [Example C117], the concentration for half-maximal inhibition (IC50) under setting [1] is below 100 nM.

In the case of `Cc1cc(-c2cnn3c(NCCN4CCOCC4)cc(OC4COC4)nc23)ccc1C(=O)NC1CC1` [Example C101], the IC50 under setting [1] lay in the range of 100 to 500 nM.

In the case of `Cc1cc(-c2cnn3c(NCC4CCOCC4)cc(N4CC5(CC(O)C5)C4)nc23)ccc1C(=O)NC1CC1` [Example C162], the 50% inhibitory concentration (IC50) under setting [1] was below 100 nM.

As to `Cc1cc(-c2cnn3c(NCC4CCOCC4)cc(NC[C@@H]4CCCO4)nc23)ccc1C(=O)NC1CC1` [Example C29, (S)-N-cyclopropyl-2-methyl-4-(7-(((tetrahydro-2H-pyran-4-yl)methyl)amino)-5-(((tetrahydrofuran-2-yl)methyl)amino)pyrazolo[1,5-a]pyrimidin-3-yl)benzamide], the half-inhibitory concentration (IC50) under setting [1] is below 100 nM.

For `Cc1cc(-c2cnn3c(NCCCn4ccnc4)cc(NC4CCCC4)nc23)ccc1C(=O)NC1CC1` [Example C70], the IC50 under setting [1] was below 100 nM.

Regarding `Cc1cc(-c2cnn3c(NCC(C)C)cc(Nc4cccnc4)nc23)ccc1C(=O)NC1CC1` [Example C160], the IC50 under setting [1] is below 100 nM.

As to `CC[C@H](Nc1cc(NCCN2CCOCC2)n2ncc(-c3ccc(C(=O)NC4CC4)c(C)c3)c2n1)[C@H](C)O` [Example C119], the IC50 under setting [1] is below 100 nM.

Turning to `CN(c1nc(NCC2CCOCC2)n2ncc(-c3ccc(C(=O)NC4CC4)c(F)c3)c2n1)C1CCCCC1` [Example C15], the IC50 under setting [2] was below 100 nM.

Turning to `O=C(NC1CC1)c1ccc(-c2cnn3c(NCCN4CCOCC4)nc(N4CCC(O)CC4)nc23)cc1` [Example A9, N-cyclopropyl-4-(2-(4-hydroxypiperidin-1-yl)-4-((2-morpholinoethyl)amino)pyrazolo[1,5-a][1,3,5]triazin-8-yl)benzamide], under setting [4], the IC50 was above 500 nM.

In the case of `Cc1cc(-c2cnn3c(NCCN4CCOCC4)cc(O[C@@H]4CCOC4)nc23)ccc1C(=O)NC1CC1` [Example C137], the IC50 under setting [1] is below 100 nM.

Consider `Cc1cc(-c2cnn3c(NCCN4CCC(F)(F)CC4)cc(NC4CCCC4)nc23)ccc1C(=O)NC1CC1` [Example C184], for which the half-inhibitory concentration (IC50) under setting [1] was below 100 nM.

On to `Cc1cc(-c2cnn3c(NCCN4CCC(O)CC4)cc(NC4CCCC4)nc23)ccc1C(=O)NC1CC1` [Example C168], for which the IC50 under setting [1] was below 100 nM.

Consider `CC(=O)N1CCN(c2cc(NCC3CCOCC3)n3ncc(-c4ccc(C(=O)NC5CC5)c(C)c4)c3n2)CC1` [Example C84], for which, under setting [1], the IC50 is below 100 nM.

For the compound `Cc1cc(-c2cnn3c(NCC4CCOCC4)cc(NC4CCCC4)nc23)ccc1NC(=O)C1CC1` [Example B15, N-(4-(5-(cyclopentylamino)-7-(((tetrahydro-2H-pyran-4-yl)methyl)amino)pyrazolo[1,5-a]pyrimidin-3-yl)-2-methylphenyl)cyclopropanecarboxamide], the IC50 under setting [3] is above 500 nM.

For the compound `Cc1cc(-c2cnn3c(NC[C@H]4CC[C@H](O)CC4)cc(NC4CCOCC4)nc23)ccc1C(=O)NC1CC1` [Example B33, N-cyclopropyl-4-(7-((((1r,4r)-4-hydroxycyclohexyl)-methyl)amino)-5-((tetrahydro-2H-pyran-4-yl)amino)pyrazolo[1,5-a]pyrimidin-3-yl)-2-methylbenzamide], the half-inhibitory concentration (IC50) under setting [3] is below 100 nM.

`O=C(NC1CC1)c1ccc(-c2cnn3c(NCC4CCOCC4)nc(N4CCCCC4)nc23)cc1Cl` [Example C16]: under setting [2], the IC50 is below 100 nM.

Regarding `Cc1cc(-c2cnn3c(NCC4CCOCC4)cc(NC4CCN(C5COC5)CC4)nc23)ccc1C(=O)NC1CC1` [Example C122], the IC50 under setting [1] is below 100 nM.

Turning to `Cc1cc(-c2cnn3c(NCC4CCOCC4)nc(Oc4ccccc4)nc23)ccc1NC(=O)C1CC1` [Example C17], the IC50 under setting [2] is above 500 nM.

As for `CC(C)CNc1cc(-c2cccc3ncccc23)nc2c(-c3ccc(C(=O)NC4CC4)cc3)cnn12` [Example C155], the IC50 under setting [1] was above 500 nM.

Consider `Cc1cc(-c2cnn3c(NCC4CCOCC4)cc(Oc4ccncc4)nc23)ccc1C(=O)NC1CC1` [Example C50], for which the IC50 under setting [1] was above 500 nM.

With `CC(C)C(=O)Nc1ccc(-c2cnn3c(NCC4CCOCC4)nc(Oc4ccccc4)nc23)cc1` [Example C3], under setting [2], the IC50 is above 500 nM.

As to `Cc1cc(-c2cnn3c(NCCN4CCOCC4)cc(Oc4cccc(S(C)(=O)=O)c4)nc23)ccc1C(=O)NC1CC1` [Example C86], under setting [1], the IC50 is 100 to 500 nM.

In the case of `Cc1cc(-c2cnn3c(NCC4CCOCC4)cc(NCc4ccccn4)nc23)ccc1C(=O)NC1CC1` [Example C73], under setting [1], the IC50 is below 100 nM.

Regarding `Cc1cc(-c2cnn3c(NCC4CCOCC4)cc(NC4COC4)nc23)ccc1C(=O)NC1CC1` [Example C102], the IC50 under setting [1] is below 100 nM.

Turning to `Cc1cc(-c2cnn3c(NCC4CCOCC4)nc(N(C)C)nc23)ccc1C(=O)NC1CC1` [Example A1, N-Cyclopropyl-4-(2-(dimethylamino)-4-(((tetrahydro-2H-pyran-4-yl)methyl)amino)pyrazolo[1,5-a][1,3,5]triazin-8-yl)-2-methylbenzamide], the half-inhibitory concentration (IC50) under setting [4] lay in the range of 100 to 500 nM.

`COC(C)(C)CNc1cc(N[C@H]2CCC[C@H]2O)nc2c(-c3ccc(C(=O)NC4CC4)c(C)c3)cnn12` [Example C129]: the half-maximal inhibitory concentration (IC50) under setting [1] is below 100 nM.

Turning to `Cc1cc(-c2cnn3c(NCC(C)(C)O)cc(Oc4ccccc4)nc23)ccc1C(=O)NC1CC1` [Example B27, N-cyclopropyl-4-(7-((2-hydroxy-2-methylpropyl)amino)-5-phenoxypyrazolo[1,5-a]pyrimidin-3-yl)-2-methylbenzamide], under setting [3], the half-maximal inhibitory concentration (IC50) is below 100 nM.

Turning to `Cc1cc(-c2cnn3c(NCC4CCOCC4)nc(NC4CCCC4)nc23)ccc1NC(=O)C1CC1` [Example C18], the IC50 under setting [2] was above 500 nM.

Consider `Cc1cc(-c2cnn3c(NCC(C)(C)O)cc(Oc4cccnc4)nc23)ccc1C(=O)NC1CC1` [Example B28, N-cyclopropyl-4-(7-((2-hydroxy-2-methylpropyl)amino)-5-(pyridin-3-yloxy)pyrazolo[1,5-a]pyrimidin-3-yl)-2-methylbenzamide], for which the IC50 under setting [3] was below 100 nM.

Turning to `O=C(NC1CC1)c1ccc(-c2cnn3c(NCCCN4CCOCC4)nc(Oc4ccccc4)nc23)cc1` [Example C1, N-cyclopropyl-4-(4-((3-morpholinopropyl)amino)-2-phenoxypyrazolo[1,5-a][1,3,5]triazin-8-yl)benzamide], the IC50 under setting [2] is below 100 nM.
